Data taken from patent US20260285857A1, “BICYCLIC AND HETEROCYCLIC AMIDE COMPOUNDS” (priority 2024, published 2026).

Tested on: immunoglobulin light chain protein WIL-FL T46L
Assay: Differential scanning fluorimetry (thermal shift) assay
Assay type: binding
Details: Table B; temperature shift [Tm]compound-[Tm]vehicle; recombinant WIL-FL T46L

For `Cc1cc(N2CC[C@](C)(c3ccccc3)C2)cn2nc(C(=O)N3CC[C@H]4[C@@H]3CC(=O)N4c3cccc(C(=O)O)n3)nc12` [Compound 704, 6-((3aS,6aS)-4-(8-methyl-6-((R)-3-methyl-3-phenylpyrrolidin-1-yl)-[1,2,4]triazolo[1,5-a]pyridine-2-carbonyl)-2-oxohexahydropyrrolo[3,2-b]pyrrol-1(2H)-yl)picolinic acid], the DSF was “***** (>2.5° C.=*****)”.

In the case of `COC(C)(CC(=O)N1CC[C@@]2(CCN(C(=O)c3nc4c(C)cc(N5CC[C@](C)(c6ccccc6)C5)cn4n3)C2)C1)C(=O)O` (stereo partly drawn) [Compound 706, 2-methoxy-2-methyl-4-[(5R)-2-[8-methyl-6-[(3R)-3-methyl-3-phenyl-pyrrolidin-1-yl]-[1,2,4]triazolo[1,5-a]pyridine-2-carbonyl]-2,7-diazaspiro[4.4]nonan-7-yl]-4-oxo-butanoic acid], the DSF is reported as “***** (>2.5° C.=*****)”.

`Cc1cc(N2CC[C@](C)(c3ccccc3)C2)cn2nc(C(=O)N3CC[C@@]4(CCN(C(=O)CC(C)(C)C(=O)O)C4)C3)nc12` [Compound 707, 2,2-dimethyl-4-[(5R)-2-[8-methyl-6-[(3R)-3-methyl-3-phenyl-pyrrolidin-1-yl]-[1,2,4]triazolo[1,5-a]pyridine-2-carbonyl]-2,7-diazaspiro[4.4]nonan-7-yl]-4-oxo-butanoic acid] was tested, and the DSF was “***** (>2.5° C.=*****)”.

`Cc1cc(N2CC[C@](C)(c3ccccc3)C2)cn2nc(C(=O)N3CC[C@@]4(CCN(C(=O)[C@@H]5CC[C@H](C(=O)O)C5)C4)C3)nc12` [Compound 708, (1S,3R)-3-[(5R)-7-[8-methyl-6-[(3R)-3-methyl-3-phenyl-pyrrolidin-1-yl]-[1,2,4]triazolo[1,5-a]pyridine-2-carbonyl]-2,7-diazaspiro[4.4]nonane-2-carbonyl]cyclopentanecarboxylic acid] was tested, and the DSF was “***** (>2.5° C.=*****)”.

In the case of `Cc1cc(N2CC[C@](C)(c3ccccc3)C2)cn2nc(C(=O)N3CC[C@@]4(CCN(C(=O)C5CC(C)(C(=O)O)C5)C4)C3)nc12` (stereo partly drawn) [Compound 709], the DSF is reported as “***** (>2.5° C.=*****)”.

For `Cc1ccc(N2CC[C@@]3(CCN(C(=O)c4nc5c(C)cc(N6CC[C@](C)(c7ccccc7)C6)cn5n4)C3)C2)nc1C(=O)O` [Compound 710], the DSF was “***** (>2.5° C.=*****)”.

With `Cc1cc(N2CC[C@](C)(c3ccccc3)C2)cn2nc(C(=O)N3CC[C@@]4(CCN(c5ccc(F)c(C(=O)O)n5)C4)C3)nc12` [Compound 711] the DSF was “***** (>2.5° C.=*****)”.

For `Cc1cc(N2CC[C@](C)(c3ccccc3)C2)cn2nc(C(=O)N3CC[C@@]4(CCN(C(=O)C56CC(C(=O)O)(C5)C6)C4)C3)nc12` [Compound 712], the DSF was “***** (>2.5° C.=*****)”.

With `Cc1cc(N2CC[C@](C)(c3ccccc3)C2)cn2nc(C(=O)N3CC[C@@]4(CCN(C(=O)C56CCC(C(=O)O)(C5)C6)C4)C3)nc12` [Compound 713] the DSF was “***** (>2.5° C.=*****)”.

In the case of `Cc1cc(N2CC[C@](C)(c3ccccc3)C2)cn2nc(C(=O)N3CC[C@@]4(CCN(c5cc(C(=O)O)ccn5)C4)C3)nc12` [Compound 714], the DSF is reported as “***** (>2.5° C.=*****)”.

In the case of `Cc1cc(N2CC[C@](C)(c3ccccc3)C2)cn2nc(C(=O)N3CC[C@@]4(CCN(C(=O)c5cccc(C(=O)O)n5)C4)C3)nc12` [Compound 715], the DSF is reported as “***** (>2.5° C.=*****)”.

For `Cc1cc(N2CC[C@](C)(c3ccccc3)C2)cn2nc(C(=O)N3CCC4(CCN(c5nccc(C(=O)O)n5)C4)C3)nc12` (stereo partly drawn) [Compound 716], the DSF was “***** (>2.5° C.=*****)”.

`Cc1cc(N2CC[C@](C)(c3ccccc3)C2)cn2nc(C(=O)N3CCC4(CCN(c5cncc(C(=O)O)c5)C4)C3)nc12` (stereo partly drawn) [Compound 717] was tested, and the DSF was “***** (>2.5° C.=*****)”.

`COc1ncc(N2CC[C@@]3(CCN(C(=O)c4nc5c(C)cc(N6CC[C@](C)(c7ccccc7)C6)cn5n4)C3)C2)cc1C(=O)O` [Compound 718] was tested, and the DSF was “***** (>2.5° C.=*****)”.

With `COc1cc(C(=O)O)cc(N2CC[C@@]3(CCN(C(=O)c4nc5c(C)cc(N6CC[C@](C)(c7ccccc7)C6)cn5n4)C3)C2)n1` [Compound 719] the DSF was “***** (>2.5° C.=*****)”.

`Cc1cc(N2CC[C@](C)(c3ccccc3)C2)cn2nc(C(=O)N3CC[C@@]4(CCN(C5CCCC(C(=O)O)C5)C4)C3)nc12` (stereo partly drawn) [Compound 720] was tested, and the DSF was “***** (>2.5° C.=*****)”.

In the case of `Cc1cc(N2CC[C@](C)(c3ccccc3)C2)cn2nc(C(=O)N3CC[C@@]4(CCN(C(=O)CC(C)(C)O)C4)C3)nc12` [Compound 721], the DSF is reported as “***** (>2.5° C.=*****)”.

`Cc1cc(N2CC[C@](C)(c3ccccc3)C2)cn2nc(C(=O)N3CCC4(CCC(N5CC(C(=O)O)C5)C4)C3)nc12` (stereo partly drawn) [Compound 722] was tested, and the DSF was “***** (>2.5° C.=*****)”.

`Cc1cc(N2CC[C@](C)(c3ccccc3)C2)cn2nc(C(=O)N3CCC4(CCN(c5nc(C(=O)O)ccc5C#N)C4)C3)nc12` (stereo partly drawn) [Compound 724] was tested, and the DSF was “***** (>2.5° C.=*****)”.

In the case of `Cc1cc(N2CC[C@](C)(c3ccccc3)C2)cn2nc(C(=O)N3CC[C@@]4(CCN(C5CC(C)(C(=O)O)C5)C4)C3)nc12` (stereo partly drawn) [Compound 725], the DSF is reported as “***** (>2.5° C.=*****)”.

With `Cc1cc(N2CC[C@](C)(c3ccccc3)C2)cn2nc(C(=O)N3CC[C@@]4(CCN(C(=O)C56COC(C(=O)O)(C5)C6)C4)C3)nc12` [Compound 726] the DSF was “***** (>2.5° C.=*****)”.

With `Cc1cc(C(=O)O)cc(N2CC[C@@]3(CCN(C(=O)c4nc5c(C)cc(N6CC[C@](C)(c7ccccc7)C6)cn5n4)C3)C2)n1` [Compound 729, 2-methyl-6-((R)-7-(8-methyl-6-((R)-3-methyl-3-phenylpyrrolidin-1-yl)-[1,2,4]triazolo[1,5-a]pyridine-2-carbonyl)-2,7-diazaspiro[4.4]nonan-2-yl)isonicotinic acid] the DSF was “***** (>2.5° C.=*****)”.

In the case of `Cc1cc(N2CC[C@](C)(c3ccccc3)C2)cn2nc(C(=O)N3CCC4(CCN(c5cnnc(C(=O)O)c5)C4)C3)nc12` (stereo partly drawn) [Compound 730, 5-(7-(8-methyl-6-((R)-3-methyl-3-phenylpyrrolidin-1-yl)-[1,2,4]triazolo[1,5-a]pyridine-2-carbonyl)-2,7-diazaspiro[4.4]nonan-2-yl)pyridazine-3-carboxylic acid], the DSF is reported as “***** (>2.5° C.=*****)”.

With `Cc1cc(N2CC[C@](C)(c3ccccc3)C2)cn2nc(C(=O)N3CC[C@@]4(CCN(C(=O)CC(C)(O)C(=O)O)C4)C3)nc12` (stereo partly drawn) [Compound 731, 2-hydroxy-2-methyl-4-[(5R)-2-[8-methyl-6-[(3R)-3-methyl-3-phenyl-pyrrolidin-1-yl]-[1,2,4]triazolo[1,5-a]pyridine-2-carbonyl]-2,7-diazaspiro[4.4]nonan-7-yl]-4-oxo-butanoic acid] the DSF was “***** (>2.5° C.=*****)”.

For `Cc1cc(N2CC[C@](C)(c3ccccc3)C2)cn2nc(C(=O)N3CC[C@@]4(CCN(C(=O)C56CCC(C(=O)O)(CC5)OC6)C4)C3)nc12` [Compound 732], the DSF was “***** (>2.5° C.=*****)”.

With `Cc1cc(N2CC[C@](C)(c3ccccc3)C2)cn2nc(C(=O)N3CC[C@@]4(CCN(C(=O)C56CCCC(C(=O)O)(C5)C6)C4)C3)nc12` [Compound 733, 5-((R)-7-(8-methyl-6-((R)-3-methyl-3-phenylpyrrolidin-1-yl)-[1,2,4]triazolo[1,5-a]pyridine-2-carbonyl)-2,7-diazaspiro[4.4]nonane-2-carbonyl)bicyclo[3.1.1]heptane-1-carboxylic acid] the DSF was “***** (>2.5° C.=*****)”.

In the case of `Cc1cc(N2CC[C@](C)(c3ccccc3)C2)cn2nc(C(=O)N3CC[C@@]4(CCN(C(=O)C5CC56CC(C(=O)O)C6)C4)C3)nc12` (stereo partly drawn) [Compound 734], the DSF is reported as “***** (>2.5° C.=*****)”.

For `Cc1cc(N2CCC(C)(n3ccc(C(F)F)n3)C2)cn2nc(C(=O)N3CC[C@@]4(CCN(c5cccc(C(=O)O)n5)C4)C3)nc12` (stereo partly drawn) [Compound 735, 6-[(5R)-2-[6-[3-[3-(difluoromethyl)pyrazol-1-yl]-3-methyl-pyrrolidin-1-yl]-8-methyl-[1,2,4]triazolo[1,5-a]pyridine-2-carbonyl]-2,7-diazaspiro[4.4]nonan-7-yl]pyridine-2-carboxylic acid], the DSF was “**** (>1.5-2.5° C.=****)”.

In the case of `Cc1cc(N2CC3(CC[C@H]3c3cccc(F)c3)C2)cn2nc(C(=O)N3CC[C@@]4(CCN(c5cccc(C(=O)O)n5)C4)C3)nc12` [Compound 736, 6-[(5R)-2-[6-[(7S)-7-(3-fluorophenyl)-2-azaspiro[3.3]heptan-2-yl]-8-methyl-[1,2,4]triazolo[1,5-a]pyridine-2-carbonyl]-2,7-diazaspiro[4.4]nonan-7-yl]pyridine-2-carboxylic acid], the DSF is reported as “***** (>2.5° C.=*****)”.

In the case of `Cc1cc(N2CC3(CCC3c3cccc(F)c3)C2)cn2nc(C(=O)N3CC[C@@]4(CCN(c5cccc(C(=O)O)n5)C4)C3)nc12` (stereo partly drawn) [Compound 737], the DSF is reported as “***** (>2.5° C.=*****)”.

For `Cc1cc(N2CC3(CCC3c3cccc(F)c3)C2)cn2nc(C(=O)N3CC[C@@]4(CCN(c5cccc(C(=O)O)n5)C4)C3)nc12` (stereo partly drawn) [Compound 738], the DSF was “***** (>2.5° C.=*****)”.

In the case of `Cc1cc(N2CC3(CCC3c3cccc(F)c3)C2)cn2nc(C(=O)N3C[C@@H]4CN(c5cccc(C(=O)O)n5)C[C@@H]4C3)nc12` (stereo partly drawn) [Compound 739], the DSF is reported as “***** (>2.5° C.=*****)”.

In the case of `Cc1cc(N2CC3(CCC3c3cccc(Cl)c3)C2)cn2nc(C(=O)N3CC[C@@]4(CCN(c5cccc(C(=O)O)n5)C4)C3)nc12` (stereo partly drawn) [Compound 740], the DSF is reported as “**** (>1.5-2.5° C.=****)”.

For `Cc1cc(N2CC[C@@](C)(n3ccc(C(F)(F)F)n3)C2)cn2nc(C(=O)N3CC[C@@]4(CCN(c5cccc(C(=O)O)n5)C4)C3)nc12` [Compound 741], the DSF was “***** (>2.5° C.=*****)”.

With `Cc1cc(N2CC[C@](C)(n3ccc(C(F)(F)F)n3)C2)cn2nc(C(=O)N3CC[C@@]4(CCN(c5cccc(C(=O)O)n5)C4)C3)nc12` [Compound 742] the DSF was “***** (>2.5° C.=*****)”.

`Cc1cc(N2CC3(CC[C@@]3(C)c3ccccc3)C2)cn2nc(C(=O)N3CC[C@@]4(CCN(c5cccc(C(=O)O)n5)C4)C3)nc12` [Compound 743, 6-[(5R)-2-[8-methyl-6-[(7S)-7-methyl-7-phenyl-2-azaspiro[3.3]heptan-2-yl]-[1,2,4]triazolo[1,5-a]pyridine-2-carbonyl]-2,7-diazaspiro[4.4]nonan-7-yl]pyridine-2-carboxylic acid] was tested, and the DSF was “***** (>2.5° C.=*****)”.
